According to article PMC8602401 (Scientific Reports, 2021):
Where two headings read alike, the source gives them in different places. *1 amine or outer side, *2 acyl side, *3 side chain or, on linkers, in order; H or OH if unused. Where a SMILES comes first, the peptide text is derived from it. Side-chain parts run from the residue outwards. [ ]: non-standard residue; d: D form. The star is where a group is joined. γGlu = O=C(O)[C@H](CCC(=O)[*:2])N[*:1]; αMeF = C[C@](N)(Cc1ccccc1)C(=O)O; αMeK = C[C@](N)(CCCCN)C(=O)O; Lauroyl = CCCCCCCCCCCC(=O)*; αMeS = C[C@](N)(CO)C(=O)O; AEEA = NCCOCCOCC(=O)O; Aib = CC(C)(N)C(=O)O

Key:
[1] = Bioavailability after intraduodenal administration with permeation enhancers in rats; format: in vivo, rat
Method: Male Sprague Dawley rats (Charles River, Shrewsbury, MA, USA) weighing 250–275 g were housed with ad libitum access to standard chow and water. Test peptides were administered via either an intravenous or a duodenal catheter (4 rats per group) after overnight fasting, and food was returned following 4 h blood collection. Blood was collected via a jugular vein catheter at − 5, 15 and 30 min and 1, 2, 4, 8 and 24 h after intravenous dosing, or for intraduodenal groups at 15 min predose and 0.5, 1, 2, 4, 8, 24 and 48 h postdose. Blood was collected in K2EDTA tubes and kept on wet ice prior to 10 min centrifugation (3000 × g) at 5 °C ± 3 °C. Plasma samples were stored at − 70 °C until analysis.
Fifty or seventy μL aliquots of K2EDTA plasma samples were precipitated with 75% acetonitrile (Sigma-Aldrich) in water (J.T. Baker, Phillipsburg, NJ, USA) (v/v) and centrifuged at 2000 × g. The supernatant was dried under nitrogen at 60 °C, then cooled. Samples were reconstituted in 20% acetonitrile in water (v/v). […] Gradient separation was performed with water and 0.2% formic acid (Thermo Fisher Scientific, Waltham, MA, USA) as mobile phase A, and acetonitrile with 0.2% formic acid as mobile phase B. The method was qualified for the quantification range of 1–1000 ng/mL with accuracy and precision of ± 20%, except for at the lower limit of quantification when the accuracy and precision were ± 25%. Plasma concentrations were subject to noncompartmental analysis consistent with the route of administration using Phoenix WinNonlin (version 7.0, Certara, Princeton, NJ, USA).

[2] = EScalate equilibrium shift assay, dog plasma; format: in vitro ADME; settings: dog; EScalate equilibrium shift, five dilutions of plasma in PBS, 1 h at room temperature, HPLC-QTOF MS; read-out: Fraction unbound peptide (%), dog
dog plasma protein = experiment: EScalate equilibrium shift assay, dog plasma; format: in vitro ADME; settings: EScalate equilibrium shift assay
[3] = EScalate equilibrium shift assay, monkey plasma; format: in vitro ADME; settings: monkey; EScalate equilibrium shift, five dilutions of plasma in PBS, 1 h at room temperature, HPLC-QTOF MS; read-out: Fraction unbound peptide (%), monkey
Method: [The procedure below names another species; the source lists this species under the same test.] (§1) Binding of peptides to human plasma proteins was determined by the EScalate equilibrium shift assay (Sovicell, Leipzig, Germany), using five dilutions of plasma in phosphate buffered saline and an assumed binding protein concentration of 600 µM. Samples were incubated for 1 h at room temperature then centrifuged to remove the HSA-coated beads. Supernatant samples were analyzed using HPLC (3 µm Phenomenex Aeris Widepore XB-C18 stationary phase) coupled to an electrospray ionization quadrupole time-of-flight mass spectrometer in high resolution accurate mass mode (Agilent, Santa Clara, CA, USA). Unbound fractions were calculated from the concentration-dependent shift in binding equilibrium according to fu=1/1+P/KDPlasma , where P is the concentration of the binding protein in plasma and KDPlasma is the dissociation constant of the compound from plasma proteins in solution.

monkey plasma protein = experiment: EScalate equilibrium shift assay, monkey plasma; format: in vitro ADME; settings: EScalate equilibrium shift assay
Method: [The procedure below names another species; the source lists this species under the same test.] as §1

rat plasma protein = experiment: EScalate equilibrium shift assay, rat plasma; format: in vitro ADME; settings: EScalate equilibrium shift assay
[4] = EScalate equilibrium shift assay, rat plasma; format: in vitro ADME; settings: rat; EScalate equilibrium shift, five dilutions of plasma in PBS, 1 h at room temperature, HPLC-QTOF MS; read-out: Fraction unbound peptide (%), rat
[5] = Pharmacokinetics of oral tablets in dogs; format: in vivo; settings: oral tablets 20 mg/dog, semaglutide: 300 mg SNAC, uncoated, MEDI7219: 100 mg NaCDC and 200 mg PG, pH 5.5 enteric, n = 9
[6] = Fasted-state simulated intestinal fluid/pancreatin assay; format: in vitro ADME; settings: FaSSIF with USP pancreatin; 2 h incubation in FaSSIF/USP pancreatin, pre-warmed, agitation; analytical RP-HPLC area under the curve; read-out: peptide remaining intact after incubation in FaSSIF/pancreatin
Method: Fresh FaSSIF and USP Pancreatin (FaSSIF/p; Sigma-Aldrich) was prepared according to Galia et al[55]. and used immediately. Peptides were dissolved in pre-warmed FaSSIF before addition of pre-warmed FaSSIF/pancreatin with agitation. Samples were analyzed by analytical RP-HPLC to determine remaining intact peptide by area under the curve.

C57Bl/6 J mice = experiment: Acute food intake in C57Bl/6J mice; format: in vivo, mouse; settings: versus placebo
Method: Male C57Bl/6 J mice 8–10 weeks of age (Jackson Laboratories, Bar Harbor, ME, USA) were single-housed in the BioDAQ (Research Diets, New Brunswick, NJ, USA) food monitoring system with ad libitum access to standard chow and water. Mice were randomized into groups of 6–9 per group on baseline 24-h food intake. On the first study day, mice were fasted for 6 h and then received a single subcutaneous dose of test peptide or placebo (50 mM Tris–HCl, 150 mM mannitol, 0.02% polysorbate 80; pH 8.0). Food intake was monitored over the next 48 h.

human GLP-1R = target: T1, human GLP-1R (Homo sapiens, UniProt P43220); experiment: cAMP accumulation assay in CHO cells stably expressing human GLP-1R; format: cell-based; settings: geometric mean (SEM); for EC50: 30 min at room temperature, HTRF cAMP, n ≥ 3 independent experiments
T1 construct: expressed in transfected cells
Method: (§2) All reagents for cAMP assays were obtained from Sigma-Aldrich unless otherwise specified.
(§3) Cells were suspended in assay buffer and combined with serially diluted peptides at room temperature for 30 min. cAMP levels were measured using a cAMP dynamic 2 HTRF kit (Cisbio, Codolet, France), following the manufacturer’s two-step protocol, on an EnVision plate reader (PerkinElmer, Waltham, MA, USA). […] The transformed data were analyzed by four-parameter logistic fit to determine EC50 values using GraphPad Prism 6 (GraphPad Software, San Diego, CA, USA).

[7] = target: T2, GLP-1R (endogenously expressed, EndoC-βH1 cells) (Homo sapiens, UniProt P43220); experiment: cAMP accumulation assay in EndoC-βH1 human pancreatic β-cells; format: cell-based; settings: geometric mean (SEM)
T2 construct: EndoC-βH1 human pancreatic β-cell line, which endogenously expresses GLP-1R; endogenous in cells; host or cells: EndoC-βH1 human pancreatic β-cells
Method: as §2, §3

human plasma protein = experiment: EScalate equilibrium shift assay, human plasma; format: in vitro ADME
Method: as §1

T1 sequence (P43220 24-463): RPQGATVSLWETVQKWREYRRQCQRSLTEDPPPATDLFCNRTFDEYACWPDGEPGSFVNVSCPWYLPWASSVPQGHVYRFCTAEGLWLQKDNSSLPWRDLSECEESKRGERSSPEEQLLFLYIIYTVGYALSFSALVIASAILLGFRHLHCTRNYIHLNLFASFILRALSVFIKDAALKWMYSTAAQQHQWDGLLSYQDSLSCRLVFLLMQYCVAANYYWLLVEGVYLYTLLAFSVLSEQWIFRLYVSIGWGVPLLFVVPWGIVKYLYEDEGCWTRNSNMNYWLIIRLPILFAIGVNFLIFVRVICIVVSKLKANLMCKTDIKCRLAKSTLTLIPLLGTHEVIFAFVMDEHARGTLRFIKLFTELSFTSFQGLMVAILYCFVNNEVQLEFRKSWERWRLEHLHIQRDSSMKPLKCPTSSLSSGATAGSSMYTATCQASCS
T2 sequence (P43220 24-463): as above

## CCCCCCCCCCCC(=O)N[C@@H](CCC(=O)NCCOCCOCC(=O)NCCOCCOCC(=O)NCCCC[C@H](NC(=O)[C@H](C)NC(=O)[C@@H](NC(=O)[C@](C)(Cc1ccccc1)NC(=O)[C@H](CCC(=O)O)NC(=O)[C@](C)(CCCCN)NC(=O)[C@H](C)NC(=O)[C@H](C)NC(=O)[C@H](CCC(=O)O)NC(=O)CNC(=O)[C@H](CCC(=O)O)NC(=O)[C@H](CC(C)C)NC(=O)[C@H](CCCCNC(=O)COCCOCCNC(=O)COCCOCCNC(=O)CC[C@H](NC(=O)CCCCCCCCCCC)C(=O)O)NC(=O)[C@H](CO)NC(=O)[C@](C)(CO)NC(=O)[C@@H](NC(=O)[C@H](CC(=O)O)NC(=O)[C@H](CO)NC(=O)[C@@H](NC(=O)[C@](C)(Cc1ccccc1)NC(=O)[C@H](CO)NC(=O)CNC(=O)[C@H](CCC(=O)O)NC(=O)C(C)(C)NC(=O)[C@@H](N)Cc1c[nH]cn1)[C@@H](C)O)C(C)C)[C@@H](C)CC)C(=O)N[C@H](C(=O)N[C@H](C(=O)N[C@@H](CCC(=O)O)C(=O)NCC(=O)NCC(N)=O)C(C)C)C(C)C)C(=O)O [MEDI7219] (H-H[Aib]EGS[αMeF]TSDV[αMeS]SK([AEEA-AEEA-γGlu-Lauroyl])LEGEAA[αMeK]E[αMeF]IAK([AEEA-AEEA-γGlu-Lauroyl])VVEGG-NH2)
[1]; intraduodenal with permeation enhancers
  fold higher mean bioavailability than semaglutide: 13 fold
[1]; single intraduodenal administration with permeation enhancers (NaCDC and PG), n = 4 per group
  mean bioavailability (%F): 1.01%
[2]
  fraction unbound at 1 h: 0.0176
Dog plasma protein
  peptide bound to plasma proteins, dog: over 97%
[3]
  fraction unbound at 1 h: 0.025
Monkey plasma protein
  peptide bound to plasma proteins, monkey: over 97%
Rat plasma protein
  peptide bound to plasma proteins, rat: over 97%
[4]
  fraction unbound at 1 h: 0.006
[5]; arithmetic mean (% CV)
  AUC0-inf: 13,500 (54.2) ng·h/mL
  CL/F (oral clearance): 1,880 (52.1) mL/h
  Cmax: 1,450 (63.2) ng/mL
  F (bioavailability, systemic fraction): 5.92 (54.2) %
[5]; median (min–max)
  Tmax: 1.5 (1.0–4.5) hours
[5]; plasma, LC/MS, arithmetic mean (% CV)
  t½: 9.8 (13.2) hours
[6]
  remaining at 2 h: > 60%
C57Bl/6 J mice; subcutaneous 0.3 nmol/kg
  24-hour food intake, decrease (↓) in Fig. 3a: 12.6%
C57Bl/6 J mice; subcutaneous 1 nmol/kg
  24-hour food intake, decrease (↓) in Fig. 3a: 18.0%
C57Bl/6 J mice; subcutaneous 3 nmol/kg
  24-hour food intake, decrease (↓) in Fig. 3a: 39.4%
Human GLP-1R; 0.1% BSA, % activation, 80 nM native GLP-1 defines maximum effect
  CHO-hGLP-1R cAMP 0.1% BSA Effect at max. concentration: 101.7 (0.5) %
Human GLP-1R; 4.4% HSA, read-out: CHO-hGLP-1R cAMP 4.4% HSA EC50
  EC50: 398 pM
Human GLP-1R; 4.4% HSA, % activation, 80 nM native GLP-1 defines maximum effect
  CHO-hGLP-1R cAMP 4.4% HSA Effect at max. concentration: 94.3 (1.8) %
Human GLP-1R; CHO-hGLP-1R cAMP 0.1% BSA EC50, 0.1% BSA
  EC50: 3.4 pM
[7]; 0.1% BSA, 30 min at room temperature, HTRF cAMP, n ≥ 3 independent experiments
  EC50: 1360 pM
[7]; % activation, 80 nM native GLP-1 defines maximum effect
  Human EndoC-βH1 cAMP 0.1% BSA Effect at max. concentration: 97.5 (7.1) %
Human plasma protein; EScalate equilibrium shift assay
  peptide bound to plasma proteins, human: over 97%
Human plasma protein; EScalate equilibrium shift, HSA-coated beads, five dilutions of plasma in PBS, 1 h at room temperature, HPLC-QTOF MS
  Fraction unbound peptide (%), human: 1.75%
